Experimental data from ChEMBL document CHEMBL5331060, “Bisindole natural products: A vital source for the development of new anticancer drugs” (Eur J Med Chem, 2022).
Values after ≈ are worked out from the molar mass of the structure shown.

Columns and labels:
[1] = system: KB; test: Antiproliferative activity against human KB cells assessed as inhibition of cell growth incubated for 72 hrs by neutral red based colorimetric assay; type: functional
[2] = system: A549; test: Antiproliferative activity against human A549 cells assessed as inhibition of cell growth; type: functional, cell-based
[3] = system: SMMC-7721; test: Antiproliferative activity against human SMMC-7721 cells assessed as inhibition of cell growth; type: functional, cell-based
[4] = system: MCF7; test: Antiproliferative activity against human MCF7 cells assessed as inhibition of cell growth; type: functional, cell-based
[5] = system: SW480; test: Antiproliferative activity against human SW480 cells assessed as inhibition of cell growth; type: functional, cell-based
[6] = system: MCF7; test: Antiproliferative activity against human MCF7 cells assessed as inhibition of cell growth incubated for 24 hrs by MTT assay; type: functional, cell-based; conditions: MCF7, 24 h
[7] = system: A549; test: Antiproliferative activity against human A549 cells assessed as inhibition of cell growth incubated for 72 hrs by SRB assay; type: functional, cell-based; conditions: A549, 72 h
[8] = system: MCF7; test: Antiproliferative activity against human MCF7 cells assessed as inhibition of cell growth incubated for 72 hrs by SRB assay; type: functional, cell-based; conditions: MCF7, 72 h
[9] = system: HCT-116; test: Cytotoxicity against human HCT-116 cells assessed as reduction in cell viability at 20 uM measured after 48 hrs by MTS assay relative to control; type: functional
[10] = system: HeLa; test: Antiproliferative activity against human HeLa cells assessed as inhibition of cell growth incubated for 48 hrs by MTT assay; type: functional, cell-based
[11] = system: MCF7; test: Antiproliferative activity against human MCF7 cells assessed as inhibition of cell growth incubated for 48 hrs by MTT assay; type: functional, cell-based; conditions: MCF7, 48 h
[12] = system: SW480; test: Antiproliferative activity against human SW480 cells assessed as inhibition of cell growth incubated for 48 hrs by MTT assay; type: functional, cell-based; conditions: SW480, 48 h
[13] = system: HepG2; test: Antiproliferative activity against human HepG2 cells assessed as inhibition of cell growth by MTT assay; type: functional, cell-based
[14] = system: MCF7; test: Antiproliferative activity against human MCF7 cells assessed as inhibition of cell growth by MTT assay; type: functional, cell-based
[15] = system: LoVo; test: Antiproliferative activity against human LoVo cells assessed as inhibition of cell growth by MTT assay; type: functional, cell-based
[16] = system: SMMC-7721; test: Antiproliferative activity against human SMMC-7721 cells assessed as inhibition of cell growth incubated for 48 hrs by MTS assay; type: functional, cell-based; conditions: SMMC-7721, 48 h
[17] = system: HT-29; test: Antiproliferative activity against human HT-29 cells assessed as inhibition of cell growth incubated for 48 hrs by MTS assay; type: functional, cell-based; conditions: HT-29, 48 h
[18] = system: A549; test: Antiproliferative activity against human A549 cells assessed as inhibition of cell growth incubated for 48 hrs by MTS assay; type: functional, cell-based; conditions: A549, 48 h
[19] = system: HL-60; test: Antiproliferative activity against human HL-60 cells assessed as inhibition of cell growth incubated for 48 hrs by WST-1 assay; type: functional, cell-based; conditions: HL-60, 48 h
[20] = system: K562; test: Antiproliferative activity against human K562 cells assessed as inhibition of cell growth incubated for 48 hrs by WST-1 assay; type: functional, cell-based; conditions: K562, 48 h
[21] = system: AGS; test: Antiproliferative activity against human AGS cells assessed as inhibition of cell growth incubated for 24 hrs by MTT assay; type: functional, cell-based
[22] = system: L1210; test: Antiproliferative activity against mouse L1210 cells assessed as inhibition of cell growth incubated for 24 hrs by MTT assay; type: functional, cell-based; conditions: L1210, 24 h
[23] = Antiproliferative activity against human BC cells assessed as inhibition of cell growth incubated for 24 hrs by MTT assay; type: functional, cell-based
[24] = Antiproliferative activity against mouse […] cells assessed as inhibition of cell growth; type: functional, cell-based
[25] = system: HeLa; test: Antiproliferative activity against human HeLa cells assessed as inhibition of cell growth incubated for 6 hrs; type: functional, cell-based
[26] = system: HeLa; test: Antiproliferative activity against human HeLa cells assessed as inhibition of cell growth incubated for 24 hrs; type: functional, cell-based
[27] = system: KB; test: Antiproliferative activity against drug-sensitive human KB cells assessed as inhibition of cell growth; type: functional, cell-based
[28] = Antiproliferative activity against vincristine-resistant human KB cells assessed as inhibition of cell growth; type: functional, cell-based

Compound: C/C=C1/CN2CC[C@@]34c5cc(OC)c(-c6cc7c8c(n(C)c7cc6OC)[C@@H]6[C@H]7O[C@@H](C)[C@H](CN6C(=O)C(C)C)[C@H]7[C@H]8C(=O)OC)c(C)c5N(C)[C@@]23CC[C@H]1[C@H]4C(=O)OC
- IC50 [1]: 6 µM

Compound: CC[C@@]12CC(C(=O)OC)=C3Nc4cc5c(cc4[C@@]34CCN(C[C@H]3O[C@H]31)[C@@H]24)[C@@H]1[C@H](O5)[C@@H](O)[C@@]2(CC)CC(C(=O)OC)=C3Nc4c(cc(O)c(OC)c4OC)[C@@]34CCN1[C@@H]24 [CONOPHYLLINE]
- IC50 [2]: 170 nM
- IC50 [3]: 170 nM
- IC50 [4]: 170 nM
- IC50 [5]: 170 nM

Compound: O=C1C[C@H]2c3cc(O)c(O)cc3[C@]3(Nc4ccccc4C3=O)[C@]23C(=O)c2ccccc2N13
- IC50 [6]: 31.7 µM

Compound: CC[C@H]1CN(C)[C@H]2Cc3c([nH]c4ccccc34)[C@H](c3c(OC)ccc4c5c([nH]c34)[C@]3(C(=O)OC)C[C@@H]4C[C@H](CC)[C@@H]3N(CC5)C4)C[C@H]1[C@@H]2C(=O)OC
- IC50 [7]: 10.9 µM
- IC50 [8]: 10.9 µM
- Activity [9]: 40%

Compound: CC[C@@]12CC(C(=O)OC)=C3Nc4cc5c(cc4[C@@]34CCN(C[C@H]3O[C@H]31)[C@@H]24)[C@@H]1[C@H](O5)[C@@H](O)[C@@]2(CC)CC(C(=O)OC)=C3Nc4c(cc(O)c(OC)c4OC)[C@@]34CC[N+]1([O-])[C@@H]24 (stereo not given in full)
- IC50 [10]: 1420 nM
- IC50 [11]: 1420 nM
- IC50 [12]: 1420 nM

Compound: CC[C@@H]1C[C@H]2C[C@](C(=O)OC)(c3cc4c(cc3OC)N(C)[C@H]3[C@@](O)(C(=O)OC)[C@H](OC(C)=O)[C@]5(CC)C=CCN6CC[C@]43[C@@H]65)c3[nH]c4ccccc4c3CC[N+]([O-])(C1)C2
- IC50 [13]: 38.2 µM
- IC50 [14]: 51.3 µM
- IC50 [15]: 65.2 µM

Compound: CC[C@]12C=CCN3CC[C@]4(C(=C(C(=O)OC)C1)Nc1cc5c(cc14)[C@@H]1[C@H](O5)[C@@H](O)[C@@]4(CC)CC(C(=O)OC)=C5Nc6c(ccc(OC)c6OC)[C@@]56CCN1[C@@H]46)[C@@H]32
- IC50 [16]: 300 nM
- IC50 [17]: 750 nM
- IC50 [18]: 3.41 µM
- IC50 [10]: 1420 nM
- IC50 [11]: 1420 nM
- IC50 [12]: 1420 nM

Compound: CC[C@@]12C=C(C(=O)OC)C3Nc4cc(OC)c(O)cc4[C@@]34CCN([C@@H]3c5cc6c(cc5O[C@@H]3[C@H]1O)NC1=C(C(=O)OC)C[C@]3(CC)[C@@H]5O[C@@H]5CN5CC[C@@]16[C@@H]53)[C@@H]24 (stereo not given in full)
- IC50 [16]: > 40000 nM
- IC50 [17]: > 40000 nM
- IC50 [18]: > 40 µM
- IC50 [10]: 1420 nM
- IC50 [11]: 1420 nM
- IC50 [12]: 1420 nM

Compound: CCC(=O)[C@H](O)[C@@H]1CN(C=O)CCc2c([nH]c3ccccc23)[C@@](C(=O)OC)(c2cc3c(cc2OC)N(C)[C@H]2[C@@](O)(C(=O)OC)[C@H](OC(C)=O)[C@]4(CC)C=CCN5CC[C@]32[C@@H]54)C1
- IC50 [19]: > 100 µM
- IC50 [20]: > 100 µM

Compound: O=C(C1=NC(c2c[nH]c3cc(Br)ccc23)CN1)c1c[nH]c2ccccc12 (stereo not given) [SPONGOTINE A]
- IC50 [21]: 1.1 µg/mL (≈ 2.7 µM)
- IC50 [22]: 1.1 µg/mL (≈ 2.7 µM)
- IC50 [23]: 10.7 µg/mL (≈ 26.3 µM)

Compound: CC[C@]12CN3CCc4c([nH]c5ccccc45)[C@@](C(=O)OC)(c4cc5c(cc4OC)N(C)[C@H]4[C@@](O)(C(=O)OC)[C@H](OC(C)=O)[C@]6(CC)C=CCN7CC[C@]54[C@@H]76)C[C@@H](C3)[C@H]1O2 [VINLEUROSINE]
- IC50 [19]: 56.2 µM
- IC50 [20]: 56.2 µM

Compound: Brc1ccc2c(-c3c[nH]c(-c4c[nH]c5cc(Br)ccc45)n3)c[nH]c2c1 [NORTOPSENTIN A]
- IC50 [24]: 7.6 µg/mL (≈ 16.7 µM)

Compound: NC[C@@H](NC(=O)C(=O)c1c[nH]c2ccccc12)c1c[nH]c2cc(Br)ccc12
- IC50 [25]: > 200 µM
- IC50 [26]: > 200 µM

Compound: CC[C@H]1[C@@H]2CCN3CC[C@@]4(C5=C2C[C@@]2(CN5c5ccccc54)C4=Nc5ccccc5[C@]45CCN4CC[C@H]2[C@H](CC)[C@@H]45)[C@@H]13
- IC50 [27]: 570 nM
- IC50 [28]: 570 nM

Compound: Brc1ccc2c(-c3c[nH]c(-c4c[nH]c5ccccc45)n3)c[nH]c2c1 [NORTOPSENTIN C]
- IC50 [24]: 1.7 µg/mL (≈ 4.51 µM)
